Results taken from PMC6407917, “Identification of GSK3186899/DDD853651 as a Preclinical Development Candidate for the Treatment of Visceral Leishmaniasis” (Journal of Medicinal Chemistry, 2018).

Columns and labels:
Assay in all cases: biochemical
Design in all cases: species or system HEK293/K-562/placenta mixed human extract; Kinobeads chemoproteomic competition binding, quantified by TMT LC-MS/MS, dose response up to 20 uM
FGFR1 = FGFR1 (Homo sapiens, UniProt P11362)
NEK7 = NEK7 (Homo sapiens, UniProt Q8TDX7)
PKN1 = PKN1 (Homo sapiens, UniProt Q16512)
SGK3 = SGK3 (Homo sapiens, UniProt Q96BR1)
MAP3K15 = MAP3K15 (Homo sapiens, UniProt Q6ZN16)
EGFR = EGFR (Homo sapiens, UniProt P00533)
AURKB = AURKB (Homo sapiens, UniProt Q96GD4)
MAP3K5 = MAP3K5 (Homo sapiens, UniProt Q99683)
CIT = CIT (Homo sapiens, UniProt O14578)
mTOR = mTOR (Homo sapiens, UniProt P42345)
TNK2 = TNK2 (Homo sapiens, UniProt Q07912)
IRAK4 = IRAK4 (Homo sapiens, UniProt Q9NWZ3)
FER = FER (Homo sapiens, UniProt P16591)
PDPK1 = PDPK1 (Homo sapiens, UniProt O15530)
RIOK2 = RIOK2 (Homo sapiens, UniProt Q9BVS4)
MYLK = MYLK (Homo sapiens, UniProt Q15746)
CDC42BPB = CDC42BPB (Homo sapiens, UniProt Q9Y5S2)
NEK1 = NEK1 (Homo sapiens, UniProt Q96PY6)
NEK9 = NEK9 (Homo sapiens, UniProt Q8TD19)
TAOK3 = TAOK3 (Homo sapiens, UniProt Q9H2K8)
FN3K = FN3K (Homo sapiens, UniProt Q9H479)

Measured: IC50

Chain of TAOK3 (Q9H2K8 whole entry): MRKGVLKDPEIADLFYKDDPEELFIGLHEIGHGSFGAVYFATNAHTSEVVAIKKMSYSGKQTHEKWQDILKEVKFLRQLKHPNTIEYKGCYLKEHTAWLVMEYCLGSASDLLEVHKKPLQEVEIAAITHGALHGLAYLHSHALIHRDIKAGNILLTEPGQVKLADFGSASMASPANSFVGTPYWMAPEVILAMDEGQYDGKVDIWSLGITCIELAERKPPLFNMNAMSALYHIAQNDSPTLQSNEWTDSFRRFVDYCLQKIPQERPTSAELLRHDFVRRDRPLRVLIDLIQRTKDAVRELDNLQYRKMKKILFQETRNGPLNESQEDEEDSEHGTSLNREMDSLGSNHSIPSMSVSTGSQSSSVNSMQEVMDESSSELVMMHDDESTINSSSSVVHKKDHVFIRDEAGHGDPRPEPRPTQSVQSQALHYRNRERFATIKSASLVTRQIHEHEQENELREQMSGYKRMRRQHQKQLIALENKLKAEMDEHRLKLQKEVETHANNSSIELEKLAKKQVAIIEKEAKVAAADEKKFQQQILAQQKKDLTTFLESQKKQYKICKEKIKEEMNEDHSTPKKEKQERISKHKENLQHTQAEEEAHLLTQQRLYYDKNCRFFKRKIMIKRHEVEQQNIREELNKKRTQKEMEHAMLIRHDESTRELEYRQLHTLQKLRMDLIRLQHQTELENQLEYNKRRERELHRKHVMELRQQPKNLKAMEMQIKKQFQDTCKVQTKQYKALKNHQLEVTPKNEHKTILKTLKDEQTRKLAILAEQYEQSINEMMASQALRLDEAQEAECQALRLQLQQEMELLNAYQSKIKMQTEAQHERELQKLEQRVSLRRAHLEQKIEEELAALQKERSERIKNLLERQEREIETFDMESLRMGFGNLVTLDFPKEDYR
Chain of CDC42BPB (Q9Y5S2 whole entry): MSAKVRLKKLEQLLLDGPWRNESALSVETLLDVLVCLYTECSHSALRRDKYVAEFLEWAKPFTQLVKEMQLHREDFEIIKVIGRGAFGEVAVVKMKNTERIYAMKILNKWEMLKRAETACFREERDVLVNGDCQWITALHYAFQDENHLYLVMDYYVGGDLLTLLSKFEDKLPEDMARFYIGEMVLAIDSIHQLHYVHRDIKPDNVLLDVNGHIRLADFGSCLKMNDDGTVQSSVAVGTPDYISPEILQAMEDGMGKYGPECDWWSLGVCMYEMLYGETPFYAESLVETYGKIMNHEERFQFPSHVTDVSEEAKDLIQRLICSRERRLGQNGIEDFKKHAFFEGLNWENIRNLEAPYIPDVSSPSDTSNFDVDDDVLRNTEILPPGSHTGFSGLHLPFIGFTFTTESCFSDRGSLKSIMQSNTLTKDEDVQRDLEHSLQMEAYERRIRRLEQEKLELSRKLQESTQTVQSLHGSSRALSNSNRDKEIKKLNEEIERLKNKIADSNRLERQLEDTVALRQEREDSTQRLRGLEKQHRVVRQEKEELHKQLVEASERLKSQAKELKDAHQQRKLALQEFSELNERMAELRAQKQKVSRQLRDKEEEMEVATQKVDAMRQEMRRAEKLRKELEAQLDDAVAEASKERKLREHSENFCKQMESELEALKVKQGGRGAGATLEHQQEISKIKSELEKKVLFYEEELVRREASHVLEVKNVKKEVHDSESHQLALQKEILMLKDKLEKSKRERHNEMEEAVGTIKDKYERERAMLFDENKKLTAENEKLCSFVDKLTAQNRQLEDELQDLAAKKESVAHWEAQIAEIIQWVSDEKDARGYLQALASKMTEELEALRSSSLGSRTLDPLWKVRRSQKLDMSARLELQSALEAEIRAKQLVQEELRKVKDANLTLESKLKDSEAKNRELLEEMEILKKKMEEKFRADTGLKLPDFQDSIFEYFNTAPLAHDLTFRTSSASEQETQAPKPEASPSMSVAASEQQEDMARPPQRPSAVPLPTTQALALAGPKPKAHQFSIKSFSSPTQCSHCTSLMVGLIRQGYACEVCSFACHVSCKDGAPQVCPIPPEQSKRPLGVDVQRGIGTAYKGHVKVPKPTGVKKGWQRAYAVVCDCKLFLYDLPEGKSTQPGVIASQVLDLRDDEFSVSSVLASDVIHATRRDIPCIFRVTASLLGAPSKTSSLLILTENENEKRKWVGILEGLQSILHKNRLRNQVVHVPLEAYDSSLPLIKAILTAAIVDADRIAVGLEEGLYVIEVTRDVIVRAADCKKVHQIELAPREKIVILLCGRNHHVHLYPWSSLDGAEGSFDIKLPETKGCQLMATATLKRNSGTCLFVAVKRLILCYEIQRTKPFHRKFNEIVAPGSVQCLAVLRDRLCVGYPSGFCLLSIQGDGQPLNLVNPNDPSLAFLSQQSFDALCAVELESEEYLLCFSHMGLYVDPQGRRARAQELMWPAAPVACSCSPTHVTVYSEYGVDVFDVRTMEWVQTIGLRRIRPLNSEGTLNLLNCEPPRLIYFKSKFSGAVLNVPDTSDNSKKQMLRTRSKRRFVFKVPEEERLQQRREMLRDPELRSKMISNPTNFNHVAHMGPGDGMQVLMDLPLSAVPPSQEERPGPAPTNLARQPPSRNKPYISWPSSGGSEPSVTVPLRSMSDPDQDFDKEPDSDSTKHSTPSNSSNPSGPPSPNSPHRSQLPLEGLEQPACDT
Chain of NEK7 (Q8TDX7 whole entry): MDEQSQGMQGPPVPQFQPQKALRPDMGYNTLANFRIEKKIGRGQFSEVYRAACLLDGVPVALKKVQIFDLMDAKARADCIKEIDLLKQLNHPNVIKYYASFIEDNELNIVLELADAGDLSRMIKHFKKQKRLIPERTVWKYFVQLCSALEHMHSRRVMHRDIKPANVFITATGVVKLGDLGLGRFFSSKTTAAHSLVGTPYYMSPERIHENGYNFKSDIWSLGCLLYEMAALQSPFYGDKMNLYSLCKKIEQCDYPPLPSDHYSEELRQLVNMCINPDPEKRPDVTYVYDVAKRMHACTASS
Chain of NEK9 (Q8TD19 whole entry): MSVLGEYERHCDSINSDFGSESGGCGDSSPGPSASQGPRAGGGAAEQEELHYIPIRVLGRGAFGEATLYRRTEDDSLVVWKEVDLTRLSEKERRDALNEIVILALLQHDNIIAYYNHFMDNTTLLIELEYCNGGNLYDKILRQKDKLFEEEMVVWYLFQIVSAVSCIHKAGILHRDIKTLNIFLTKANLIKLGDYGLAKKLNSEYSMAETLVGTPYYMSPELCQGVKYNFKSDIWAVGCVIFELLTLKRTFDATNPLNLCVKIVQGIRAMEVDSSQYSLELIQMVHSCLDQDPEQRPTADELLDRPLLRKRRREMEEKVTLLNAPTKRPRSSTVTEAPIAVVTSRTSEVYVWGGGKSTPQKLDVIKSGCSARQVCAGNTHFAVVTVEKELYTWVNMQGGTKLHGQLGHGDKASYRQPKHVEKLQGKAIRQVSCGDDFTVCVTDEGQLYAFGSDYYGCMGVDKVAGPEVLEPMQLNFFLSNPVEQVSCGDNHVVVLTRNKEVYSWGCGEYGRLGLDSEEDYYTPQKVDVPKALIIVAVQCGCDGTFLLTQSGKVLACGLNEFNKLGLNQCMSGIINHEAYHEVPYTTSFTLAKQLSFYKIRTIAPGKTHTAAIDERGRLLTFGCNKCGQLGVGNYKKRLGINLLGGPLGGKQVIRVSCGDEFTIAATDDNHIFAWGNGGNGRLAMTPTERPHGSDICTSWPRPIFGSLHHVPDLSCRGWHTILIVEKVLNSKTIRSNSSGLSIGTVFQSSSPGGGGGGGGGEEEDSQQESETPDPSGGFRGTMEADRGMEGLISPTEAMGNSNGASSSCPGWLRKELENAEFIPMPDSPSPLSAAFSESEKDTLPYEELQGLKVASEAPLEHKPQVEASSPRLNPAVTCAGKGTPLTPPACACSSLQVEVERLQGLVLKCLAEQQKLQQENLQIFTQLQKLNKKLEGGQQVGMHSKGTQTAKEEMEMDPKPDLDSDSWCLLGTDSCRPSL
Chain of PKN1 (Q16512 whole entry): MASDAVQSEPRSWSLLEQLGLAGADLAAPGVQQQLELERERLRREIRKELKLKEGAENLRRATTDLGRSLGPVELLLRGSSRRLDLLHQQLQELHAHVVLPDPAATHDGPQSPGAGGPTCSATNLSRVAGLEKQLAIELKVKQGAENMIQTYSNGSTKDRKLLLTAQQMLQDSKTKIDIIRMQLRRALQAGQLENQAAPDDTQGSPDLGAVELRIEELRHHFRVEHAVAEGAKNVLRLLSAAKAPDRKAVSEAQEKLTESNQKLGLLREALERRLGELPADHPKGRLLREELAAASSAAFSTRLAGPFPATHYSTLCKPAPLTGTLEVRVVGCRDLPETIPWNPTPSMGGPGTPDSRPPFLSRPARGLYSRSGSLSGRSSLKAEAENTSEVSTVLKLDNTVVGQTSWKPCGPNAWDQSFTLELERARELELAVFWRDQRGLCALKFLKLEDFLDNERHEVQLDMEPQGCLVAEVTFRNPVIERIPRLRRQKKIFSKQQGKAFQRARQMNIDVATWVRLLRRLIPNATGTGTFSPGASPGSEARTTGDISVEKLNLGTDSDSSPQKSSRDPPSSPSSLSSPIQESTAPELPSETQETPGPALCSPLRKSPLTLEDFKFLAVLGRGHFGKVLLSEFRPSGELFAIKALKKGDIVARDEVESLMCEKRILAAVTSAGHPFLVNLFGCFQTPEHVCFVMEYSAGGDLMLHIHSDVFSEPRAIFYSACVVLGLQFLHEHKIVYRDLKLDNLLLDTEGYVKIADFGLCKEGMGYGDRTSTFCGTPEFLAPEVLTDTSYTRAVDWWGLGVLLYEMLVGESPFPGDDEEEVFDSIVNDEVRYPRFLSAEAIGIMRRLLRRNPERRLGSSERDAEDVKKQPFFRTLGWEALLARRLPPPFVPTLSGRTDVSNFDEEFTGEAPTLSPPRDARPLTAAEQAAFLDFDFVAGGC

COc1nc(N[C@H]2CC[C@H](NS(=O)(=O)CC(C)C)CC2)nc2[nH]nc(N3CCOC[C@H]3C)c12 [compound 39, N-(trans-4-((4-Methoxy-3-((R)-3-methylmorpholino)-1H-pyrazolo[3,4-d]pyrimidin-6-yl)amino)cyclohexyl)-2-methylpropane-1-sulfonamide]
≥ 20 µM: all assays above
